# Reference: US20160060260A1, “BROMODOMAIN INHIBITORS FOR TREATING DISEASE” (Board of Regents, The University of Texas System, priority 2014, published 2016)
# Legend:
# [1] = molecular target: T1, Recombinant human His-tagged Trim24-PHD-bromodomain (Homo sapiens, UniProt O15164); assay: Trim24 AlphaScreen Assay; assay type: binding; settings: 5 nM Trim24 protein, 15 nM biotinylated H3K23ac (1-33aa) peptide
# T1 construct: Recombinant human His-tagged Trim24-PHD-bromodomain (produced in-house); made in house
# T1 sequence (O15164 824-1006 limits assumed): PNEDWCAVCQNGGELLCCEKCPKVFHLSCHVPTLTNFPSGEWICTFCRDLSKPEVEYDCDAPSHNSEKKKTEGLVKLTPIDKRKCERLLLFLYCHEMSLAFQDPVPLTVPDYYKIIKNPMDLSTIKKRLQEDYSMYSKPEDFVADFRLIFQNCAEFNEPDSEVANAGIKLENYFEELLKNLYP
# Method in brief: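 AlphaScreen read-out after 2 h with streptavidin donor and Ni-chelate acceptor beads at 10 ug/mL each, following 1 h room-temperature incubation of compound, His-tagged PHD-bromodomain protein and biotin-H3K23ac (1-33aa) peptide in Hepes pH 7.5 buffer with NaCl and Triton X-100. Signals normalised between no-compound and no-protein wells; IC50 from four-parameter logistic curves.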
# [2] = molecular target: T2, TRIM24 (Homo sapiens, UniProt O15164); assay: BROMOscan DiscoveRx Binding Constant Assay (TRIM24); settings: qPCR readout
# T2 construct: purchased DiscoveRx (BROMOscan); host or cells: T7 phage in E. coli host derived from BL21
# T2 sequence (O15164 899-1004 limits assumed): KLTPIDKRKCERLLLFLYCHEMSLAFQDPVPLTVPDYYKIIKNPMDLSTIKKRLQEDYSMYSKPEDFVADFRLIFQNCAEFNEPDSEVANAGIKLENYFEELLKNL
# Text: (§1) Compounds that bind the bromodomain active site and directly (sterically) or indirectly (allosterically) prevent bromodomain binding to the immobilized ligand, will reduce the amount of protein captured on the solid support (Panels A & B). […] Screening “hits” are identified by measuring the amount of bromodomain captured in test versus control samples by using a quantitative, precise and ultra-sensitive qPCR method that detects the associated DNA label. In a similar manner, dissociation constants (Kd's) for test compound-bromodomain interactions are calculated by measuring the amount of bromodomain captured on the solid support as a function of the test compound concentration.
# (§2) Bromodomain assays. T7 phage strains displaying bromodomains were grown in parallel in 24-well blocks in an E. coli host derived from the BL21 strain. E. coli were grown to log-phase and infected with T7 phage from a frozen stock (multiplicity of infection=0.4) and incubated with shaking at 32° C. until lysis (90-150 minutes). The lysates were centrifuged (5,000×g) and filtered (0.2 μm) to remove cell debris. Streptavidin-coated magnetic beads were treated with biotinylated small molecule or acetylated peptide ligands for 30 minutes at room temperature to generate affinity resins for bromodomain assays. The liganded beads were blocked with excess biotin and washed with blocking buffer (SeaBlock (Pierce), 1% BSA, 0.05% Tween 20, 1 mM DTT) to remove unbound ligand and to reduce non-specific phage binding. […] Test compounds were prepared as 1000× stocks in 100% DMSO and subsequently diluted 1:10 in monoethylene glycol (MEG) to create stocks at 100× the screening concentration (resulting stock solution is 10% DMSO/90% MEG). The compounds were then diluted directly into the assays such that the final concentration of DMSO and MEG were 0.1% and 0.9%, respectively. All reactions were performed in polystyrene 96-well plates in a final volume of 0.135 ml.
# (§3) The beads were then re-suspended in elution buffer (lx PBS, 0.05% Tween 20, 2 μM nonbiotinylated affinity ligand) and incubated at room temperature with shaking for 30 minutes. The bromodomain concentration in the eluates was measured by qPCR.
# (§4) An 11-point 3-fold serial dilution of each test compound was prepared in 100% DMSO at 1000× final test concentration. This serial is then diluted to 100× in ethylene glycol and subsequently diluted to 1× in the assay (final DMSO concentration=0.1%, Ethylene glycol concentration=0.9%). […] If the initial Kd determined was <0.169 nM (the lowest concentration tested), the measurement was repeated with a serial dilution starting at a lower top concentration.
# (§5) Binding constants (Kd's) were calculated with a standard dose-response curve using the Hill equation: Response=Background+Signal−Background 1+(Kd Hill Slope/DoseHill Slope) The Hill Slope was set to −1. Curves were fitted using a non-linear least square fit with the Levenberg-Marquardt algorithm.
# [3] = molecular target: T3, BRPF1 (Homo sapiens, UniProt P55201); assay: BROMOscan DiscoveRx Binding Constant Assay (BRPF1); settings: qPCR readout
# T3 construct: purchased DiscoveRx (BROMOscan); host or cells: T7 phage in E. coli host derived from BL21
# T3 sequence (P55201 628-732 limits assumed): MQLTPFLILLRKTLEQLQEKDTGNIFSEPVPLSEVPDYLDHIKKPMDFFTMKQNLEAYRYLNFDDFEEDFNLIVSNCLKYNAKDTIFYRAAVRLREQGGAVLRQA
# Text: as §1, §2, §3, §4, §5
# [4] = molecular target: T4, BRPF2 (Homo sapiens, UniProt O95696); assay: BROMOscan DiscoveRx Binding Constant Assay (BRPF2); settings: qPCR readout
# T4 construct: purchased DiscoveRx (BROMOscan); host or cells: T7 phage in E. coli host derived from BL21
# T4 sequence (O95696 562-666 limits assumed): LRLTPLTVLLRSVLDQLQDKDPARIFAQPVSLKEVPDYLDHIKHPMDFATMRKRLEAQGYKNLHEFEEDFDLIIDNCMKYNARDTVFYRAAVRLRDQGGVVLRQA
# Text: as §1, §2, §3, §4, §5
# [5] = molecular target: T5, BRPF3 (Homo sapiens, UniProt Q9ULD4); assay: BROMOscan DiscoveRx Binding Constant Assay (BRPF3); settings: qPCR readout
# T5 construct: purchased DiscoveRx (BROMOscan); host or cells: T7 phage in E. coli host derived from BL21
# T5 sequence (Q9ULD4 589-693 limits assumed): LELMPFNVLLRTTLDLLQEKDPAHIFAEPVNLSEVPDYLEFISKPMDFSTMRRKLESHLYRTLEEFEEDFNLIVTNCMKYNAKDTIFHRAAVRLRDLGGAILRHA
# Text: as §1, §2, §3, §4, §5
IC50 [1] [nM],SMILES,also measured
100 to 1000,"COCCCOc1cccc(Oc2cc3c(cc2NS(=O)(=O)c2cn(C)c(C)n2)n(C)c(=O)n3C)c1 [Example 46, N-(6-(3-(3-methoxypropoxy)phenoxy)-1,3-dimethyl-2-oxo-2,3-dihydro-1H-benzo[d]imidazol-5-yl)-1,2-dimethyl-1H-imidazole-4-sulfonamide]",Kd [2]: 11 to 100 nM; Kd [3]: 11 to 100 nM; Kd [4]: 11 to 100 nM; Kd [5]: > 100 nM
10 to 100,"COc1ccc(S(=O)(=O)Nc2cc3c(cc2Oc2cc(OCCCCCCN)cc(OCC(F)(F)F)c2)n(C)c(=O)n3C)cc1OC [Example 194, N-(6-(3-((6-aminohexyl)oxy)-5-(2,2,2-trifluoroethoxy)phenoxy)-1,3-dimethyl-2-oxo-2,3-dihydro-1H-benzo[d]imidazol-5-yl)-3,4-dimethoxybenzenesulfonamide]",
> 1000,"CCCOc1cc(Oc2cc3c(cc2NS(=O)(=O)c2cn(C)cn2)n(C)c(=O)n3C)ccc1OC [Example 114, N-(6-(4-methoxy-5-propoxyphenoxy)-1,3-dimethyl-2-oxo-2,3-dihydro-1H-benzo[d]imidazol-5-yl)-1-methyl-1H-imidazole-4-sulfonamide]",
> 1000,"Cn1ccnc1S(=O)(=O)Nc1cc2c(cc1Oc1cccc(OCc3ccccc3)c1)n(C)c(=O)n2C [Example 80, N-(6-(3-(benzyloxy)phenoxy)-1,3-dimethyl-2-oxo-2,3-dihydro-1H-benzo[d]imidazol-5-yl)-1-methyl-1H-imidazole-2-sulfonamide]",
10 to 100,"Cc1n[nH]c(C)c1S(=O)(=O)Nc1cc2c(cc1Oc1cccc(OCC3CC3)c1)n(C)c(=O)n2C [Example 136, N-(6-(3-(cyclopropylmethoxy)phenoxy)-1,3-dimethyl-2-oxo-2,3-dihydro-1H-benzo[d]imidazol-5-yl)-3,5-dimethyl-1H-pyrazole-4-sulfonamide]",
10 to 100,"CCCOc1cc(OCCCO)cc(Oc2cc3c(cc2NS(=O)(=O)c2cn(C)c(C)n2)n(C)c(=O)n3C)c1 [Example 98, N-(6-(3-(3-hydroxypropoxy)-5-propoxyphenoxy)-1,3-dimethyl-2-oxo-2,3-dihydro-1H-benzo[d]imidazol-5-yl)-1,2-dimethyl-1H-imidazole-4-sulfonamide]",
100 to 1000,"CCCOc1cc(OCCCOC)cc(Oc2cc3c(cc2NS(=O)(=O)c2ccc(OC)cc2)n(C)c(=O)n3C)c1 [Example 157, 4-methoxy-N-(6-(3-(3-methoxypropoxy)-5-propoxyphenoxy)-1,3-dimethyl-2-oxo-2,3-dihydro-1H-benzo[d]imidazol-5-yl)benzenesulfonamide]",
10 to 100,"CCCOc1cc(OCCCOC)cc(Oc2cc3c(cc2NS(=O)(=O)c2cn(C(C)C)c(C)n2)n(C)c(=O)n3C)c1 [Example 139, 1-isopropyl-N-(6-(3-(3-methoxypropoxy)-5-propoxyphenoxy)-1,3-dimethyl-2-oxo-2,3-dihydro-1H-benzo[d]imidazol-5-yl)-2-methyl-1H-imidazole-4-sulfonamide]",
10 to 100,"CCCOc1cc(OCCCCCCO)cc(Oc2cc3c(cc2NS(=O)(=O)c2cnn(C)c2C)n(C)c(=O)n3C)c1 [Example 178, N-(6-(3-((6-hydroxyhexyl)oxy)-5-propoxyphenoxy)-1,3-dimethyl-2-oxo-2,3-dihydro-1H-benzo[d]imidazol-5-yl)-1,5-dimethyl-1H-pyrazole-4-sulfonamide]",
100 to 1000,"COc1ccc(S(=O)(=O)Nc2cc3c(cc2Oc2cccc(OCc4ccccc4)c2)n(C)c(=O)n3C)cc1OC [Example 1, N-(6-(3-(benzyloxy)phenoxy)-1,3-dimethyl-2-oxo-2,3-dihydro-1H-benzo[d]imidazol-5-yl)-3,4-dimethoxybenzenesulfonamide]",
100 to 1000,"C=CCOc1cccc(S(=O)(=O)Nc2cc3c(cc2Oc2cccc(OCCC)c2)n(C)c(=O)n3C)c1 [Example 106, 3-(allyloxy)-N-(1,3-dimethyl-2-oxo-6-(3-propoxyphenoxy)-2,.3-dihydro-1H-benzo[d]imidazol-5-yl)benzenesulfonamide]",
10 to 100,"CCCOc1cc(OCCCOC)cc(Oc2cc3c(cc2NS(=O)(=O)c2cn4c(n2)CCCC4)n(C)c(=O)n3C)c1 [Example 140, N-(6-(3-(3-methoxypropoxy)-5-propoxyphenoxy)-1,3-dimethyl-2-oxo-2,3-dihydro-1H-benzo[d]imidazol-5-yl)-5,6,7,8-tetrahydroimidazo[1,2-a]pyridine-2-sulfonamide]",
10 to 100,"CCCOc1cccc(Oc2cc3c(cc2NS(=O)(=O)c2cn(C)cn2)n(C)c(=O)n3C)c1 [Example 83, N-(1,3-dimethyl-2-oxo-6-(3-propoxyphenoxy)-2,3-dihydro-1H-benzo[d]imidazol-5-yl)-1-methyl-1H-imidazole-4-sulfonamide]",
> 1000,"Cn1c(=O)n(C)c2cc(Oc3cccc(OCc4ccccc4)c3)c(NS(=O)(=O)C3CC3)cc21 [Example 12, N-(6-(3-(benzyloxy)phenoxy)-1,3-dimethyl-2-oxo-2,3-dihydro-1H-benzo[d]imidazol-5-yl)cyclopropanesulfonamide]",
100 to 1000,"Cn1c(=O)n(C)c2cc(Oc3cccc(OCc4ccccc4)c3)c(NS(=O)(=O)c3nnc[nH]3)cc21 [Example 22, N-(6-(3-(benzyloxy)phenoxy)-1,3-dimethyl-2-oxo-2,3-dihydro-1H-benzo[d]imidazol-5-yl)-4H-1,2,4-triazole-3-sulfonamide]",
10 to 100,"CCCOc1cc(OCCCOC)cc(Oc2cc3c(cc2NS(=O)(=O)c2cn(C)c(Cl)n2)n(C)c(=O)n3C)c1 [Example 149, 2-chloro-N-(6-(3-(3-methoxypropoxy)-5-propoxyphenoxy)-1,3-dimethyl-2-oxo-2,3-dihydro-1H-benzo[d]imidazol-5-yl)-1-methyl-1H-imidazole-4-sulfonamide]",

SMILES,IC50 [1] [nM],also measured
"CCCOc1cc(OCCCCN(C)C)cc(Oc2cc3c(cc2NS(=O)(=O)c2cnn(C)c2C)n(C)c(=O)n3C)c1 [Example 217, N-(6-(3-(4-(dimethylamino)butoxy)-5-propoxyphenoxy)-1,3-dimethyl-2-oxo-2,3-dihydro-1H-benzo[d]imidazol-5-yl)-1,5-dimethyl-1H-pyrazole-4-sulfonamide]",10 to 100,
"CC(C)COc1cc(F)cc(Oc2cc3c(cc2NS(=O)(=O)c2cn(C)cn2)n(C)c(=O)n3C)c1 [Example 224, N-(6-(3-fluoro-5-isobutoxyphenoxy)-1,3-dimethyl-2-oxo-2,3-dihydro-1H-benzo[d]imidazol-5-yl)-1-methyl-1H-imidazole-4-sulfonamide]",10 to 100,
"COc1ccc(S(=O)(=O)Nc2cc3c(cc2Oc2cc(OCCCCN(C)C)cc(OCC(F)(F)F)c2)n(C)c(=O)n3C)cc1OC [Example 211, N-(6-(3-(4-(dimethylamino)butoxy)-5-(2,2,2-trifluoroethoxy)phenoxy)-1,3-dimethyl-2-oxo-2,3-dihydro-1H-benzo[d]imidazol-5-yl)-3,4-dimethoxybenzenesulfonamide]",1 to 10,
